Results taken from patent US11413349B2, “Green methodology to create polymeric nanocarriers containing hydrophilic low molecular-weight drugs and providing a very high drug loading and a very high prolonged release” (UNIVERSIDAD DE CHILE, priority 2019, dated 2022).
Like-named read-outs stand apart in the source and are kept apart here.

Assays:
[1] = cited from earlier work
[2] = Diafiltration study of kinetically and thermodynamically bound drug; assay type: physicochemical
Protocol: Diafiltration studies were carried out to determine the fraction of amitriptyline (AMT) that was kinetically or thermodynamically bound to poly(sodium 4-styrenesulfonate (PSS) as the nanoparticle. For this study, diafiltration was been modeled as a two-compartment system, where a continuous liquid supply from the donor chamber (reservoir) is kept, maintaining a constant volume in the diafiltration cell. The unit used for diafiltration analyses consisted of a diafiltration cell, a regenerated cellulose membrane, a reservoir, a […], and a pressure source. […] The volume in the filtration cell was kept constant during the experiment, by creating a continuous flux of liquid through the diafiltration cell, from the reservoir to the collector tube. […] A total of 8 samples (approx. 5 mL) were collected and AMT concentration in each sample was determined by spectrophotometry. Subsequently, the thermodynamically bound (TB) and kinetically bound (KB) fractions were determined as follows: TB=v(km-j)/km KB=u-um The parameters v and u represent the initial fraction of AMT thermodynamically bound to the particles, thus in equilibrium, and the fraction bound to the nanocarriers whose release is kinetically controlled, respectively. […] A total of 8 samples (approx. 5 mL) were collected and the concentration of the interest species in each sample was determined by spectrophotometry. […]

[3] = cited from earlier work; remark: listed apart in the source
[4] = In vitro drug release by dialysis; assay type: physicochemical; conditions: AMT/PSS n+/n−=0.60, dialysis, pH=7 and 37° C., 20 days
Protocol: The in vitro drug release of amitriptyline (AMT) from poly (sodium 4-styrenesulfonate (PSS) was evaluated using a dialysis method. Briefly, 5 mL of AMT/PSS (n+/n−=0.60) was transferred to a dialysis membrane. The membrane was immersed in 95 mL of Milli-Q water at pH 7 and kept at 37° C. and 100 rpm in an orbital shaker. The experiment was carried out for 20 days. Aliquots (500 μL) of the solution were withdrawn at certain time intervals and replaced with an equal volume of fresh Milli-Q water. The amount of released AMT was determined by measuring the absorbance of each aliquot at 239 nm. The standard curve of AMT in water was linear (R2>0.997) in the range of concentrations between 7×10^−5 M and 7×10^−7 M (molar extinction coefficient was 12712 M^−1 cm^−1). Blank experiments dialyzing free AMT were carried out at the same conditions.
i) Dialysis: 5 mL of HALMD/PSS formulations were added in a dialysis bag (MWCO 10 kDa, ThermoScientific, USA). The dialysis system was immersed in 95 mL of Milli-Q water at pH 7 and kept at 37° C., and 100 rpm in an orbital shaker (LSI-3016R, LabTech, Daihan LabTech, Kyonggi-Do, Korea). […] The amount of released HALMD (CQ, PMZ and CPM) was determined by measuring the absorbance of each aliquot by spectrophotometry (Agilent 8453 spectrophotometer, USA).

In the case of CN(C)CCC(c1ccc(Cl)cc1)c1ccccn1 (centres unmarked) [Chlorpheniramine], the pKa [1] is listed as 4.0, the pKa ([1]; second value) is listed as 9.4 and the “drug association attributed to kinetic binding” value ([2]; HALMD/PSS NPs) is listed as “≈ 50%”.

For COc1cccc2c1C(=O)c1c(O)c3c(c(O)c1C2=O)C[C@@](O)(C(=O)CO)C[C@@H]3O[C@H]1C[C@H](N)[C@H](O)[C@H](C)O1 [doxorubicin], the initial drug release ([3]; poly(N-isopropylacrylamide)-based thermosensitive hydrogel (Chen et al)) is listed as 40%.

In the case of CN(C)CCC=C1c2ccccc2CCc2ccccc21 [AMT, amitriptyline], the “release of AMT” value [4] is given as no more than 16.5%, the release ([3]; from polyvinyl alcohol-based beads, first stage of the experiment (Ahnfelt et al)) is given as greater than 80% and the “drug molecules not subjected to equilibrium with the bulk (release kinetically controlled)” value ([2]; AMT/PSS formulations) is given as “more than 80%”.

For CN(C)CCCN1c2ccccc2CCc2ccccc21 [imipramine], the burst release ([3]; from calcium-alginate gel beads, 1-2 h (Tomida et al)) is listed as “≈ 80%”.
